The target of data set [1] is T1, Kir2.1 (Mus musculus, UniProt P35561).
T1 sequence (P35561 1-428): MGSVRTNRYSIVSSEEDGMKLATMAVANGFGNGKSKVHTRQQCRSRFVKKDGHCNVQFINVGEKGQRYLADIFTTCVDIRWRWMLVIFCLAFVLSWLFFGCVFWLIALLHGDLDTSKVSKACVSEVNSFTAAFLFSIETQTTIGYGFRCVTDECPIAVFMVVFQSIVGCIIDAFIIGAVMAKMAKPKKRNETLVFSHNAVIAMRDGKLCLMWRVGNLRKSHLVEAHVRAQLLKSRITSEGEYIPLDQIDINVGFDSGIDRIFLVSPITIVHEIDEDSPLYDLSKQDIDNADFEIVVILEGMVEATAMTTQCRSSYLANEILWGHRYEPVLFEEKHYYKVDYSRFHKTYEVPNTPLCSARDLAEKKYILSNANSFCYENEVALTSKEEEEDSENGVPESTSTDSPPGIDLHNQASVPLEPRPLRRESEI
Kind of data set: whole cell.

The next data set concerns the target Kir2.1 D172N (Mus musculus, UniProt P35561, D172N). Kind of data set: patch clamp, Kir2.1 D172N mutant. A general note: The patch-clamp technique gives a direct electrical read-out from membranes.
Another data set deals with Kir2.1 D172N/I176C (Mus musculus, UniProt P35561, D172N/I176C). Kind of data set: patch clamp, Kir2.1 D172N/I176C mutant.
The target in another data set is hKir7.1 (Homo sapiens, UniProt O60928). Kind of data set: whole cell patch clamp, Kir7.1. The following applies: IC50 Kir7.1, pH 7.4.
Sequence of hKir7.1 (O60928 whole entry): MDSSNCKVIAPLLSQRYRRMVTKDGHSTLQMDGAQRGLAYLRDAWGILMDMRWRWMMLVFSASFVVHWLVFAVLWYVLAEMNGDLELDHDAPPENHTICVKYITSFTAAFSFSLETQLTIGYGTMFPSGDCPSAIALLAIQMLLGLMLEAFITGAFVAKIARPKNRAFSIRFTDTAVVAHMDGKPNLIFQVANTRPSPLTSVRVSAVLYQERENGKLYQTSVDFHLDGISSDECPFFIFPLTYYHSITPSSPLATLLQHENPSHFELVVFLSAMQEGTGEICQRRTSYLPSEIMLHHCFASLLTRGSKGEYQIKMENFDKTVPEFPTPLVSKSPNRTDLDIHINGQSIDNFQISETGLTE
The next data set addresses 3A4 (Homo sapiens, UniProt P08684). Kind of data set: CYP450 inhibition assay.
A short description of data set [2]: Ricerca Lead Profiling Screen, 68 radioligand binding assays. Particulars: GPCRs, ion channels and transporters.
In the next data set the target is T2, C25 chimera (Mus musculus, UniProt P35561, A121P/A131S/A173S/C101L/C149F/C169V/C89I/D114R/D152E/D172N/DEL116-120/E125N/E153Q/F103W/F129M/F98L/G111K/I106V/I137L/I156T/I175M/I176C/I87V/INS113PEFYPPDN/L105V/L108Y/L109V/L90T/L94G/L97F/M160L/M180L/P155A/S124E/S128G/T141V/V102L/V126I/V158I/V161L/V162I/V167L/V179I/V86T/V93L/W104Y).
T2 sequence (P35561 with tags, fused parts or gaps V86T/I87V/C89I/L90T/V93L/L94G/L97F/F98L/C101L/V102L/F103W/W104Y/L105V/I106V/L108Y/L109V/G111K/INS113PEFYPPDN/D114R/DEL116-120/A121P/S124E/E125N/V126I/S128G/F129M/A131S/I137L/T141V/C149F/D152E/E153Q/P155A/I156T/V158I/M160L/V161L/V162I/V167L/C169V/D172N/A173S/I175M/I176C/V179I/M180L): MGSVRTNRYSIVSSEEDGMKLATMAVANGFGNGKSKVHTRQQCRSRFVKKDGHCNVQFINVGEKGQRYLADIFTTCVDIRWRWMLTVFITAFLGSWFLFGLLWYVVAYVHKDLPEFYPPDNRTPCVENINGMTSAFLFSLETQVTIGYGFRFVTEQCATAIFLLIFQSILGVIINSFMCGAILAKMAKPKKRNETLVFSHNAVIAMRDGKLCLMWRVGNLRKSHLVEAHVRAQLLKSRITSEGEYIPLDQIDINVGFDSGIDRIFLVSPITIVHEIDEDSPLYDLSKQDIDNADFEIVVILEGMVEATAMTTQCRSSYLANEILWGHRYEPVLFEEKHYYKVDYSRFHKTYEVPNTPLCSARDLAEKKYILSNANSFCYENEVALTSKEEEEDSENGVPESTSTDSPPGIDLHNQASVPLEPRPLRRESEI
Kind of data set: patch clamp, C25 chimera. It counts as cell-based, mouse/rat. Particulars: for inhibition of C25 current: pH 7.4.

The target in another data set is hERG (Homo sapiens, UniProt Q12809). Kind of data set: Ricerca Lead Profiling Screen radioligand binding.
For another data set, the target named is C25 N172D (Mus musculus, UniProt P35561, A121P/A131S/A173S/C101L/C149F/C169V/C89I/D114R/D152E/DEL116-120/E125N/E153Q/F103W/F129M/F98L/G111K/I106V/I137L/I156T/I175M/I176C/I87V/INS113PEFYPPDN/L105V/L108Y/L109V/L90T/L94G/L97F/M160L/M180L/P155A/S124E/S128G/T141V/V102L/V126I/V158I/V161L/V162I/V167L/V179I/V86T/V93L/W104Y). Kind of data set: patch clamp, C25 N172D mutant. Particulars: pH 7.4.

Another data set concerns the target hKir2.3 (Homo sapiens, UniProt P48050). Kind of data set: whole cell patch clamp, Kir2.3.
The target in a further data set is hKir2.6 (Homo sapiens, UniProt B7U540). Kind of data set: whole cell patch clamp, Kir2.6.
Sequence of hKir2.6 (B7U540 whole entry): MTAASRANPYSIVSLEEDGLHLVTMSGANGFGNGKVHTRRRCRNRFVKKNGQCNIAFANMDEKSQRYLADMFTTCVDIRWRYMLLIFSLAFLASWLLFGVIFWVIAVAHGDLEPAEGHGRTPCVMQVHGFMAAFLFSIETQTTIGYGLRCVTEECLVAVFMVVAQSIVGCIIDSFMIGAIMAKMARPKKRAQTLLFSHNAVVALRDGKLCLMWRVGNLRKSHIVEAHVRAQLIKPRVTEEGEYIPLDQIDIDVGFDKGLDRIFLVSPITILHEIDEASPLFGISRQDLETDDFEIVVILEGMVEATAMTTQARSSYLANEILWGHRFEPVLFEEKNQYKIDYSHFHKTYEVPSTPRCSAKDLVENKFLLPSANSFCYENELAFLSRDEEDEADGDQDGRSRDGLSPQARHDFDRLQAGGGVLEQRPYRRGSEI
In another data set the target is N-type calcium channels (Rattus norvegicus, UniProt Q02294). Kind of data set: Ricerca Lead Profiling Screen radioligand binding.
Sequence of N-type calcium channels (Q02294 whole entry): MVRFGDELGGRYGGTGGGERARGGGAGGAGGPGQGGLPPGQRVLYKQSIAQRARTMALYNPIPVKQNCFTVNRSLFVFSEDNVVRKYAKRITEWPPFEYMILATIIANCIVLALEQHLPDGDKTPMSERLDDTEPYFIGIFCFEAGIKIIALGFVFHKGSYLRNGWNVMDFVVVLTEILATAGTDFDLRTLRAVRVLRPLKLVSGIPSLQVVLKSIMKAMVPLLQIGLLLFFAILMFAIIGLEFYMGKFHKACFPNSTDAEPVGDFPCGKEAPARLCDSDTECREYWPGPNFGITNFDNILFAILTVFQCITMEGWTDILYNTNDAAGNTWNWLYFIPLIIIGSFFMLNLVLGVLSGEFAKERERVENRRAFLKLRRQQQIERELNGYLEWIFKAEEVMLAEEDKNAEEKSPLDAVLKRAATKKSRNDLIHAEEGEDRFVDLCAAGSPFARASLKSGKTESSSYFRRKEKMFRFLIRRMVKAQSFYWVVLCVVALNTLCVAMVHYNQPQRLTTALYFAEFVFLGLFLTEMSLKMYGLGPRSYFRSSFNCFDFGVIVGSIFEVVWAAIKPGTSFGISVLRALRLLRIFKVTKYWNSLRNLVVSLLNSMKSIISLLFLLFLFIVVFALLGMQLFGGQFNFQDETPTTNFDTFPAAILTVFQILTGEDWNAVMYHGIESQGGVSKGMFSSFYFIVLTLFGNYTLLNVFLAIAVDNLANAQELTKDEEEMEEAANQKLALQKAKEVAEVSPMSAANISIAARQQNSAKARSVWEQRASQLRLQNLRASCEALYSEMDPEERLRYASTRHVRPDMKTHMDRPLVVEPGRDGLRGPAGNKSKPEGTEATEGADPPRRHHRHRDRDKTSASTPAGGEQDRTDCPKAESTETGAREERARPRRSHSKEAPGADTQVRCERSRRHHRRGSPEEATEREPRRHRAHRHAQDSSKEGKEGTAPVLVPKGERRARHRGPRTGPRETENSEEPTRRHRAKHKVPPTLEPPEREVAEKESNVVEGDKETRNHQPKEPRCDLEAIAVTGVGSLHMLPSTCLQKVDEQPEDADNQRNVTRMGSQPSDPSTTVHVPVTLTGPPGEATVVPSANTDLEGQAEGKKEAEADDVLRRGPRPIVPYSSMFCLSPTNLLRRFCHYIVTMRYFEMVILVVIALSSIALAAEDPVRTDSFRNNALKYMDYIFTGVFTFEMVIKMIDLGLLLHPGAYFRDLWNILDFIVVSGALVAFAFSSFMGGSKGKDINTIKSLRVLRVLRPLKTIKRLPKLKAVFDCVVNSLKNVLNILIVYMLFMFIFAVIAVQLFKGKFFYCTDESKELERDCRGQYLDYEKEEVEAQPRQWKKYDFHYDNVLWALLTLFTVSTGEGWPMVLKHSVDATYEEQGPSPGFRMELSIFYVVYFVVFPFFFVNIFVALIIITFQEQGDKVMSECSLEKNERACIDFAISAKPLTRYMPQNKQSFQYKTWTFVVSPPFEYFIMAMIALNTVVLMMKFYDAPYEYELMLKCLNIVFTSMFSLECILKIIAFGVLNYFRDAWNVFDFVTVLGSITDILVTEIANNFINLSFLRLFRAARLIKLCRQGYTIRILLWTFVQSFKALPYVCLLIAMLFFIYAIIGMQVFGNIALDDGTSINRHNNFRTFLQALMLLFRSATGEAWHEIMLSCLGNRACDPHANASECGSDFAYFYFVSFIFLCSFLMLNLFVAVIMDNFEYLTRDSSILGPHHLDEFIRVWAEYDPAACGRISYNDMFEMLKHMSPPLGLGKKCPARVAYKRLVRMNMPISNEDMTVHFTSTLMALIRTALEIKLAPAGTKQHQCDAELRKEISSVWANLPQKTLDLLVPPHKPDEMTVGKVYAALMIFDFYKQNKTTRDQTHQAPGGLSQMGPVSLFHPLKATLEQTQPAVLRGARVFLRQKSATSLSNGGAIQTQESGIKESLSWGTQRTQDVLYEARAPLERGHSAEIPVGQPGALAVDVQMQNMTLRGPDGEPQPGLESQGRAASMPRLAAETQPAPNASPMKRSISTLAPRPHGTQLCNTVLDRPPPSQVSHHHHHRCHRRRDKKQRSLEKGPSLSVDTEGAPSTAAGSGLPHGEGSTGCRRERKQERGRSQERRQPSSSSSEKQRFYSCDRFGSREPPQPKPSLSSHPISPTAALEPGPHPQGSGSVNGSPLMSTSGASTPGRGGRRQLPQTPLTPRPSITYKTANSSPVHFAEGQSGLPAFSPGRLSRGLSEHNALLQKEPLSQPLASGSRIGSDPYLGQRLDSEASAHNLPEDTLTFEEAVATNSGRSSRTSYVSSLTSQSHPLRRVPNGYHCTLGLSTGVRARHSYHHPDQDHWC
The target of the next data set is Kir1.1 N171D (Rattus norvegicus, UniProt P35560, N171D). Kind of data set: patch clamp, Kir1.1 N171D mutant.
Sequence of Kir1.1 N171D (P35560 whole entry N171D): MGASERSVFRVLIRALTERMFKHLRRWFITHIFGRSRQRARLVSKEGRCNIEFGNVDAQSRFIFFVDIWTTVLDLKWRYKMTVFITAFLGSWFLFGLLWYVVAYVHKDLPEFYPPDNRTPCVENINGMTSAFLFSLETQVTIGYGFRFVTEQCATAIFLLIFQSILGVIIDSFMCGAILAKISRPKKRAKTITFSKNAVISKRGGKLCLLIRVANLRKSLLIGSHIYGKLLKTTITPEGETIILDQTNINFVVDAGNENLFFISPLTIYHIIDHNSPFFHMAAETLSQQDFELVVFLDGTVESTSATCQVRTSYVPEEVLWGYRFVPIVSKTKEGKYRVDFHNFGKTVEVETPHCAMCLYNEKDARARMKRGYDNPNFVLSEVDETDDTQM
The conditions of data set [3]: PubChem database; cited from earlier work.
For another data set, the target named is 2D6 (Homo sapiens, UniProt P10635).
Sequence of 2D6 (P10635 whole entry): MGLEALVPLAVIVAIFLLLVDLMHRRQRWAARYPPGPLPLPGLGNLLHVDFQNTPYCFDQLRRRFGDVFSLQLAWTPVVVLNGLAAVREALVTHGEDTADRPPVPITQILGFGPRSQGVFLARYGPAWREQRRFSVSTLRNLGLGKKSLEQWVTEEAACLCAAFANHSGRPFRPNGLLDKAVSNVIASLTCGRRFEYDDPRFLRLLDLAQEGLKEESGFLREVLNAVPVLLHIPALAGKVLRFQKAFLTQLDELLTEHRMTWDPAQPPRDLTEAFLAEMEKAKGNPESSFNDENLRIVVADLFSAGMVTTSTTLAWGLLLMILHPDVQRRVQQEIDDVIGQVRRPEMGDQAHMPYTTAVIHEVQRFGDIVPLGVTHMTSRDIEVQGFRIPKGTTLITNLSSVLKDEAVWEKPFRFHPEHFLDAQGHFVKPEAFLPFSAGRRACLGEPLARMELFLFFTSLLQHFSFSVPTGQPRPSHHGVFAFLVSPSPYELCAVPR
A further data set has as its target rKir4.1 (Rattus norvegicus, UniProt P49655). Kind of data set: whole cell patch clamp, Kir4.1.
For the next data set, the target named is 1A2 (Homo sapiens, UniProt P05177).
The target in another data set is Kir1.1 N171D/C175I (Rattus norvegicus, UniProt P35560, C175I/N171D). Kind of data set: patch clamp, Kir1.1 N171D/C175I mutant.
Sequence of Kir1.1 N171D/C175I (P35560 whole entry N171D/C175I): as the sequence (P35560 whole entry N171D) above, with C175I counted along it
Data set [4] can be described thus: intrinsic clearance, human.
In another data set the target is 2C9 (Homo sapiens, UniProt P11712). Kind of data set: CYP450 inhibition assay.
The subject of the next data set is L-type calcium channels. Kind of data set: Ricerca Lead Profiling Screen radioligand binding.
The next data set deals with C25 N172D/M175I/C176I (Mus musculus, UniProt P35561, A121P/A131S/A173S/C101L/C149F/C169V/C89I/D114R/D152E/DEL116-120/E125N/E153Q/F103W/F129M/F98L/G111K/I106V/I137L/I156T/I87V/INS113PEFYPPDN/L105V/L108Y/L109V/L90T/L94G/L97F/M160L/M180L/P155A/S124E/S128G/T141V/V102L/V126I/V158I/V161L/V162I/V167L/V179I/V86T/V93L/W104Y). Kind of data set: patch clamp, C25 N172D/M175I/C176I mutant.

The next data set concerns the target T3, Kir1.1 (Rattus norvegicus, UniProt P35560).
T3 sequence (P35560 1-391): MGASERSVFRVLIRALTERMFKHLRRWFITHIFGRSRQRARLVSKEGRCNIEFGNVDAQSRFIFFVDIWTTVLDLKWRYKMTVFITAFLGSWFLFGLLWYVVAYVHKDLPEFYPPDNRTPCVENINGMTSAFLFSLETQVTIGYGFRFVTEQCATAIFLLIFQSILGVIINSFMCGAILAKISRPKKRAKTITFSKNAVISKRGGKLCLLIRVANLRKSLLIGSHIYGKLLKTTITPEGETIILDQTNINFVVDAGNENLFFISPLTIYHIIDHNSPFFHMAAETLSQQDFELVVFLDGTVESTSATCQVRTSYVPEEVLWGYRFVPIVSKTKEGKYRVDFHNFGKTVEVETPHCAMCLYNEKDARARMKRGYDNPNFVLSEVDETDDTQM
Kind of data set: whole cell patch clamp, Kir1.1. In kind it is cell-based.

In data set [5] the target is T1, Kir2.1. Kind of data set: inside-out patch, compound applied from intracellular side. It counts as cell-based. Particulars: IC50 Kir2.1, inside-out patch, pH 6.5, applied from intracellular side.
Another data set concerns KATP channel. The following applies: read-out: KATP channel IC50; cited from earlier work.
[6] abbreviates: read-out: IC50 Kir2.1, pH 8.5, manual patch clamp.
The mark [7] stands for this setting: pH 7.4, read-out: inhibition of C25 current.

Structures are written as SMILES. Where “and” joins values, the source holds several entries; their conditions need not be identical. Equal values may be shown once. Entries after “also recorded” stand apart in the source; their conditions may differ. Where only a bound is given, the exact number is not on record here.

Sequence of 3A4 (P08684 whole entry): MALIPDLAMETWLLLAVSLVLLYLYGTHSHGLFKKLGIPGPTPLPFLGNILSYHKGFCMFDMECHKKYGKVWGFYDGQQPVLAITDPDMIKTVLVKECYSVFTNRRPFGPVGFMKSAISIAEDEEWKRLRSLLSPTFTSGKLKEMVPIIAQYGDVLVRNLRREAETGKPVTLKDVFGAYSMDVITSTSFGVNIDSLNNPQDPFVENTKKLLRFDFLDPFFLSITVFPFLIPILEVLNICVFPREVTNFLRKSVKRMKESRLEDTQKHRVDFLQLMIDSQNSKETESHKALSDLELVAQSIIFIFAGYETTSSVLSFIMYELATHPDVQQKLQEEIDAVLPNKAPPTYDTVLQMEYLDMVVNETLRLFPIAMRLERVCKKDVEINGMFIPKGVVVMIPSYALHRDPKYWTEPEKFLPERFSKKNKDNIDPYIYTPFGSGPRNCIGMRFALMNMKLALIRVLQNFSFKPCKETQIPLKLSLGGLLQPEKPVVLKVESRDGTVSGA
Sequence of hKir2.3 (P48050 whole entry): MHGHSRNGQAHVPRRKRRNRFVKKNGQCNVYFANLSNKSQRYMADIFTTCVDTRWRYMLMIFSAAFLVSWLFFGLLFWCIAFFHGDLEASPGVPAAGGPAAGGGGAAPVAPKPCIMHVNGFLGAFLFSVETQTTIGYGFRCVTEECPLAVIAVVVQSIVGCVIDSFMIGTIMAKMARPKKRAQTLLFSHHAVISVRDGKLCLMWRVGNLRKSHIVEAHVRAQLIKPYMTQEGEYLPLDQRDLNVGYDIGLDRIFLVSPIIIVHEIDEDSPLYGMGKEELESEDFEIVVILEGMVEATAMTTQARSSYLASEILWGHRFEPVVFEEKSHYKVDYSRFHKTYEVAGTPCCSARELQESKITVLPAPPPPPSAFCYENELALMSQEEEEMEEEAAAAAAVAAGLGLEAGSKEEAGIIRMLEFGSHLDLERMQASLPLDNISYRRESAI

As for `COc1ccc(CNCc2ccc(Cl)cc2)cc1` [14a], the IC50 (usually the concentration that gives 50% inhibition) at Kir2.1 [1] (setting [6]) was found to be 0.77 µM.

Take `COc1ccc(CNCc2ccc(Cl)cc2Cl)cc1` [13c]: the IC50 on Kir2.1 [1] (setting [6]) stood at 3.89 µM.

With `COc1ccc(CNCc2cccc(Cl)c2)cc1` [14b], the IC50 on Kir2.1 [1] (setting [6]) was 1.06 µM.

With `COc1ccc(CNCc2cccc3ccccc23)cc1` [ML133, N-(4-methoxybenzyl)-1-(naphthalen-1-yl)methanamine], the “Hill coefficient (NH) Kir2.1 D172N” value at Kir2.1 D172N came to 1.3. In addition, the half-maximal inhibitory concentration (IC50) at Kir2.1 D172N (IC50 Kir2.1 D172N, pH 7.4) is 15 µM and 15.4 µM; against Kir2.1 D172N/I176C (IC50 Kir2.1 D172N/I176C, pH 7.4), 45 µM and 43.6 µM; at hKir7.1 it was 33 µM and 32.9 µM; against 3A4, more than 30 µM; against C25 N172D (IC50 C25 N172D) it was 75 µM and 75.2 µM; at hKir2.3 it was 4 µM. Further, the IC50 turned out to be 2.8 µM on hKir2.6; 83.6 µM at Kir1.1 N171D; 0.13 µM at 2D6; 10 µM on Kir2.1 [1] (IC50 Kir2.1, pH 6.5, whole cell); 0.29 µM against Kir2.1 [1] (IC50 Kir2.1, pH 8.5, manual patch clamp); 76 µM on rKir4.1. For the same compound, the IC50 was 3.3 µM at 1A2; 64 µM against Kir1.1 N171D/C175I; more than 30 µM against 2C9; 5.8 µM at C25 N172D/M175I/C176I; 85.5 µM at Kir1.1 (IC50 Kir1.1 (estimated), pH 8.5); more than 300 µM against Kir1.1 (IC50 Kir1.1, pH 7.4). On Kir2.1 [5], this compound registered a half-maximal inhibitory concentration (IC50) of 2.6 µM. For the same compound, the “Hill coefficient (NH) Kir2.1 D172N/I176C” value at Kir2.1 D172N/I176C came out at 1.8. In data set [2], the “ancillary pharmacology in 68-assay radioligand binding panel” value was “clean ancillary pharmacology; also recorded: clean profile”. The results for the “inhibition of C25 current” value against C25 chimera (30 μM) and on C25 chimera (100 μM) were “resistant” and “slightly inhibited”, respectively. Besides, the inhibition (in general, the relative decrease from the control value, in per cent) at 30 µM at C25 chimera (setting [7]) is less than 20%. Also, the inhibition at 100 µM at C25 chimera (setting [7]) is approximately 30%. The “activity at hERG” value at hERG was “inactive”. At C25 N172D, the “Hill coefficient (NH) C25 N172D” value amounted to 2.2. Besides, at N-type calcium channels, the “activity at N-type calcium channels” value was “inactive”. The protein bound in the data set “protein binding, rat” was more than 99%; in the data set “protein binding, human”, more than 99%. Also, at Kir1.1 N171D, the “Hill coefficient (NH) Kir1.1 N171D” value is 1.6. Also, in data set [3], the “activity in MLPCN HTS assays not based on Kir2.1” value was “inactive in all but two of 213 MLPCN HTS assays”. Besides, the intrinsic clearance result in “intrinsic clearance, rat” is recorded as “high intrinsic clearance”; in data set [4] it was “high intrinsic clearance”. Besides, on Kir2.1 [1] (3 μM, pH 6.5, 20 minute incubation), the “effect on Kir2.1 currents” value is listed as “no significant effect”. In addition, the “time to complete inhibition of Kir2.1” value at Kir2.1 [1] (3 μM, pH 8.5) is not above 5 min. Further, on Kir2.1 [1] (3 μM, pH 8.5), the “wash out of compound effects” value is recorded as “approximately 10 minutes”. For the same compound, the “Hill coefficient (NH) Kir2.1” value at Kir2.1 [1] (pH 6.5) is 1.8; on Kir2.1 [1] (pH 7.4), 1.7; on Kir2.1 [1] (pH 8.5) it was 4.0. Also, the “Hill coefficient (NH) Kir1.1 N171D/C175I” value on Kir1.1 N171D/C175I is 2.3. For the same compound, in the data set with L-type calcium channels, the “activity at L-type calcium channels” value is “inactive”. Further, the “Hill coefficient (NH) C25 triple mutant” value at C25 N172D/M175I/C176I (pH 7.4) came out at 1.1. Also, the “effect on Kir1.1 current” value at Kir1.1 (pH 7.4, up to 300 μM) was “essentially insensitive; also recorded: not inhibited”.

For the compound `COc1ccc(CNCc2ccc(C(C)(C)C)cc2)cc1` [14d], on Kir2.1 [1] (setting [6]), the IC50 worked out at 1.39 µM.

For the compound `COc1ccc(CNCc2ccc(OC)cc2)cc1` [14g], the concentration for half-maximal inhibition (IC50) on Kir2.1 [1] (read-out: IC50 Kir2.1, pH 7.4, whole cell, compound applied extracellularly) amounted to 35 µM.

Take `COc1ccc(Cl)cc1C(=O)NCCc1ccc(S(=O)(=O)NC(=O)NC2CCCCC2)cc1` [glibenclamide]: the IC50 in the data set on KATP channel was […].

As to `COc1ccc(CNCc2ccccc2Cl)cc1` [14j], the half-inhibitory concentration (IC50) on Kir2.1 [1] (setting [6]) was 13.9 µM.

As to `[Ba+2]` [barium, reference compound], the “inhibition of Kir1.1” value against Kir1.1 (5 mM) is reported as “completely inhibited”. For the same compound, the “inhibition of Kir1.1 current” value on Kir1.1 (at the end of the recording) was “over 85%”.

On to `COc1ccc(CNCc2ccccc2C)cc1` [14e], for which the IC50 at Kir2.1 [1] (setting [6]) came to 5.15 µM.
